From BindingDB's records for doi:10.1021/bi900167q (Duke University, 2009)

Target: T1, UDP-3-O-acyl-N-acetylglucosamine deacetylase (Escherichia coli (strain K12), UniProt P0A725)
T1 sequence (P0A725 whole entry): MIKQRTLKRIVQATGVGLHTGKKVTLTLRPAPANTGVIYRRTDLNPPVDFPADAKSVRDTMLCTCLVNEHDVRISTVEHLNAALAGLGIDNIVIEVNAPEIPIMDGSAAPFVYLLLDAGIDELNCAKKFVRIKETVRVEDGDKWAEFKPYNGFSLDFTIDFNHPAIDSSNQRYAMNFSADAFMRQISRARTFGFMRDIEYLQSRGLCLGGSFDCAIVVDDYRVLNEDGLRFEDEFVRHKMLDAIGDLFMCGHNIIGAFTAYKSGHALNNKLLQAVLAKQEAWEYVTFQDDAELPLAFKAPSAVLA
Test: LpxC Assay
Excerpt: Inhibition assay using E. coli LpxC.

| SMILES | IC50 |
| --- | --- |
| O=c1ccn(C2OC(CO/N=C/c3ccc(O)c(O)c3)C(O)C2O)c(=O)[nH]1 (stereo not given) [1-68Aa analogue] | 30 µM |
| O=C(CO/N=C/c1ccc(O)c(O)c1O)NCC1OC(n2ccc(=O)[nH]c2=O)C(O)C1O (stereo not given) [2-68A analogue] | 120 µM |

Next, values leading:

| IC50 | SMILES |
| --- | --- |
| 27 µM | O=c1ccn(C2OC(CO/N=C/c3ccc(O)c(O)c3O)C(O)C2O)c(=O)[nH]1 (stereo not given) [1-68A analogue] |
| > 500 µM | O=c1ccn(C2OC(CO/N=C/c3cccc(O)c3O)C(O)C2O)c(=O)[nH]1 (stereo not given) [1-68Ac analogue] |
| > 500 µM | O=c1ccn(C2OC(CO/N=C/c3cc(O)c(O)c(O)c3)C(O)C2O)c(=O)[nH]1 (stereo not given) [1-68Ad analogue] |
